Experimental data as given in US20070265273A1, “Pyrimidin-2-Amine Derivatives and Their Use as A2b Adenosine Receptor Antagonists” (priority 2003, published 2007).

These compounds were tested against T1, human recombinant A1 receptors (Homo sapiens, UniProt P30542) (assay: Adenosine 1 receptor subtype competition radioligand binding assay). Details: 1 h, [3H]-DPCPX, CHO-K1 membranes, read-out: Binding human A1, % @ 1 μM (column headed Ki (nM)).
T1 construct: host or cells: CHO-K1
T1 sequence (P30542 1-326): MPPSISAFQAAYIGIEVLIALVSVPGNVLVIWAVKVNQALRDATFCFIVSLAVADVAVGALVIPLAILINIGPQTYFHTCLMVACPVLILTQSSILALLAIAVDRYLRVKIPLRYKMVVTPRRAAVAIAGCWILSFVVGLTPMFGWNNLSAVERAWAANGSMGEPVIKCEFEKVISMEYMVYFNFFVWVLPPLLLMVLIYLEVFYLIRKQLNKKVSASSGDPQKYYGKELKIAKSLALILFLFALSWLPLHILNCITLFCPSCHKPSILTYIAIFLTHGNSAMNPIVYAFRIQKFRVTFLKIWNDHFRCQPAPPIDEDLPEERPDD
Procedure: Adenosine I Receptor Subtype Competition Radioligand Binding Assay
CHO-K1 cells expressing human recombinant A1 receptors were purchased from Euroscreen (Belgium). For membrane preparation, cells were collected from tissue culture plates using a cell scraper, resuspended in 10-15 ml of homogenization buffer (Tris-HCl 15 mM pH 7.5, MgCl2 2 mM, EDTA 0.3 mM, EGTA 1 mM), homogenized, and centrifuged at 40.000 g for 25 minutes. The resulting pellet was resuspended in the same buffer and centrifuged again for 25 minutes. Finally, the pellet was resuspended in 500 μl of storage buffer (Tris-HCl 7.5 mM pH 7.5, MgCl2 12.5 mM, EDTA 0.3 mM, EGTA 1 mM, sucrose 250 mM) where the total protein content was determined.
Competition assays were carried out incubating 15 μg of A1-membrane preparations, 2 nM [^3H]-DPCPX (Amersham) as radioligand and 10 μM of unlabeled DPCPX ligand, in a total volume of 100 μl of buffer (Hepes 20 mM pH 7.4, NaCl 100 mM, MgCl2 10 mM, 2 U/ml adenosin deaminase) for 1 h at 25° C. Samples were filtered and washed 4 times with 250 μl of buffer (Hepes 20 mM pH 7.4, NaCl 100 mM, MgCl2 10 mM) using plates (Millipore MAFCN0B50) preincubated for 15 min. in 250 μl of the same buffer. Samples were counted using 30 μl of LSC Universol (ICN) in a Wallac 1450 Microbeta counter. Non specific binding was tested using 10 μM R-PIA.

Structure (SMILES)	inhibition at 1 µM [%]
COc1ccc(Nc2ncc(-c3ccncn3)c(-c3ccco3)n2)cn1 [Example 2, 4′-(2-Furyl)-N-(6-methoxypyridin-3-yl)-4,5′-bipyrimidin-2′-amine]	5
c1coc(-c2nc(Nc3cncnc3)ncc2-c2ccncn2)c1 [Example 13, 4′-(2-Furyl)-N-pyrimidin-5-yl-4,5′-bipyrimidin-2′-amine]	3
[O-][n+]1cccc(Nc2ncc(-c3ccncn3)c(-c3ccco3)n2)c1 [Example 12, 4′-(2-Furyl)-N-(1-oxidopyridin-3-yl)-4,5′-bipyrimidin-2′-amine]	4
Fc1ccc(Nc2ncc(-c3ccncn3)c(-c3ccco3)n2)cn1 [Example 4, N-(6-Fluoropyridin-3-yl)-4′-(2-furyl)-4,5′-bipyrimidin-2′-amine]	30
c1cncc(Nc2ncc(-c3ccncn3)c(-c3cccs3)n2)c1 [Example 6, N-Pyridin-3-yl-4′-thien-2-yl-4,5′-bipyrimidin-2′-amine]	31
c1cncc(Nc2ncc(-c3ccnnc3)c(-c3ccco3)n2)c1 [Example 11, 4-(2-Furyl)-5-pyridazin-4-yl-N-pyridin-3-ylpyrimidin-2-amine]	23
O=c1ccc(Nc2ncc(-c3ccncn3)c(-c3ccco3)n2)c[nH]1 [Example 21, 5-{[4′-(2-Furyl)-4,5′-bipyrimidin-2′-yl]amino}pyridin-2(1H)-one]	0
c1cncc(Nc2ncc(-c3ccncn3)c(-c3ccco3)n2)c1 [Example 1, 4′-(2-Furyl)-N-pyridin-3-yl-4,5′-bipyrimidin-2′-amine]	14

The compounds below were run against T2, human recombinant A2A receptor (Homo sapiens, UniProt P29274) (assay: Adenosine 2A receptor subtype competition radioligand binding assay). Details: @ 1 μM; [3H]-ZM241385, Hela cell membranes.
T2 construct: expressed in transfected cells; host or cells: HeLa (stably transfected)
T2 sequence (P29274 whole entry): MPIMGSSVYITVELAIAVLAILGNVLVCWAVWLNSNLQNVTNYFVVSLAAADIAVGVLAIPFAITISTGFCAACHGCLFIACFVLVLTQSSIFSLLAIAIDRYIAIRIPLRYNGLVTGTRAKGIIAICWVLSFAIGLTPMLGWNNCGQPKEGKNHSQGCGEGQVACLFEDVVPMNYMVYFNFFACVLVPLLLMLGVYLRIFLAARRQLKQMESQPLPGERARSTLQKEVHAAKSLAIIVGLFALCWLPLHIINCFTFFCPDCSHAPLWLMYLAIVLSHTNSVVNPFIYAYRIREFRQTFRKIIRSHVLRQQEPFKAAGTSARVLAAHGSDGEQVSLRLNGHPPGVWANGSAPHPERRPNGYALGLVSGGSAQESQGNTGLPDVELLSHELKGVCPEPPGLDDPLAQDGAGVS
Procedure: Adenosine 2A Receptor Subtype Competition Radioligand Binding Assay
(§1) Membranes were prepared from Hela cells stably transfected with the human recombinant A2A receptor. For membrane preparation, cells were collected from tissue culture plates using a cell scraper, resuspended in 10-15 ml homogenization buffer (Tris-HCl 5 mM, EDTA 2 mM), homogenized, and centrifuged at 1.000 g. for 10 min. at 4° C. The supernatant was then recovered and centrifuged at 50.000 g for 1 h. at 4° C. Finally, the pellet was resuspended in 100-500 μl storage buffer (Tris-HCl 50 mM pH 7.4) where the total protein content was determined.
Competition assays were carried out incubating 5 μg of A2A-membranes, 3 nM [^3H]-ZM241385 (Tocris) as radioligand and 50 μM of unlabeled ZM241385 ligand, in a total volume of 100 μl of buffer (TrisHCl 50 μM pH 7.4, EDTA 1 mM, MgCl2 10 mM, 2 U/ml adenosin deaminase) for 30 minutes at 25° C. Samples were then filtered and washed 4 times with 250 μl of buffer (TrisHCl 50 μM pH 7.4, EDTA 1 mM, MgCl2 10 mM) using plates (Millipore MAFCN0B50) preincubated for 15 min. in 250 μl of the same buffer. Samples were counted using 30 μl of LSC Universol (ICN) in a Wallac 1450 Microbeta counter. Non specific binding was tested using 50 μM NECA.

Structure (SMILES)	Binding human A2A, % @ 1 μM (column headed Ki (nM)) [% @ 1 μM]
COc1ccc(Nc2ncc(-c3ccncn3)c(-c3ccco3)n2)cn1 [Example 2, 4′-(2-Furyl)-N-(6-methoxypyridin-3-yl)-4,5′-bipyrimidin-2′-amine]	14
c1coc(-c2nc(Nc3cncnc3)ncc2-c2ccncn2)c1 [Example 13, 4′-(2-Furyl)-N-pyrimidin-5-yl-4,5′-bipyrimidin-2′-amine]	15
[O-][n+]1cccc(Nc2ncc(-c3ccncn3)c(-c3ccco3)n2)c1 [Example 12, 4′-(2-Furyl)-N-(1-oxidopyridin-3-yl)-4,5′-bipyrimidin-2′-amine]	7
Fc1ccc(Nc2ncc(-c3ccncn3)c(-c3ccco3)n2)cn1 [Example 4, N-(6-Fluoropyridin-3-yl)-4′-(2-furyl)-4,5′-bipyrimidin-2′-amine]	21
c1cncc(Nc2ncc(-c3ccnnc3)c(-c3ccco3)n2)c1 [Example 11, 4-(2-Furyl)-5-pyridazin-4-yl-N-pyridin-3-ylpyrimidin-2-amine]	17
O=c1ccc(Nc2ncc(-c3ccncn3)c(-c3ccco3)n2)c[nH]1 [Example 21, 5-{[4′-(2-Furyl)-4,5′-bipyrimidin-2′-yl]amino}pyridin-2(1H)-one]	0

Same assay, conditions: [3H]-ZM241385, Hela cell membranes

Structure (SMILES)	Ki [nM]
c1cncc(Nc2ncc(-c3ccncn3)c(-c3cccs3)n2)c1 [Example 6, N-Pyridin-3-yl-4′-thien-2-yl-4,5′-bipyrimidin-2′-amine]	620
c1cncc(Nc2ncc(-c3ccncn3)c(-c3ccco3)n2)c1 [Example 1, 4′-(2-Furyl)-N-pyridin-3-yl-4,5′-bipyrimidin-2′-amine]	2540

The compounds below were run against T3, human recombinant A3 receptor (Homo sapiens, UniProt P0DMS8) (assay: Adenosine 3 receptor subtype competition radioligand binding assay). Details: not given.
T3 construct: expressed in transfected cells; host or cells: HeLa (stably transfected)
T3 sequence (P0DMS8 1-318): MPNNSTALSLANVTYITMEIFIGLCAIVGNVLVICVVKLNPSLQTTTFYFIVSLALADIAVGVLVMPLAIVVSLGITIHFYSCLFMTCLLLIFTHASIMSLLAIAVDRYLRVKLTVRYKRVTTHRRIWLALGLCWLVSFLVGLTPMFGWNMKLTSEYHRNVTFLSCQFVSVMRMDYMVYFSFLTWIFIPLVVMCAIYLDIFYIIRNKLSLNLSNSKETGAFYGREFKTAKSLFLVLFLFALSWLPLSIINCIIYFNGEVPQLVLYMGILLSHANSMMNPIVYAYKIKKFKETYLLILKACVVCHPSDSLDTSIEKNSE
Procedure: Adenosine 3 Receptor Subtype Competition Radioligand Binding Assay
as §1, with “A3” for “A2A”, “ml of” for “ml”, “μl of” for “μl”
Competition assays were carried out incubating 100 μg of A3-membranes, 30 nM [^3H]-NECA (Amersham) as radioligand and 50 μM of unlabeled NECA ligand, in a total volume of 100 μl of buffer (Tris-HCl 50 mM pH 7.4, MgCl2 5 mM, EDTA 1 mM, 2 U/ml adenosine deaminase) for 3 hours at 25° C. Samples were filtered 4 times with 250 μl of buffer (Tris-HCl 50 mM pH 7.4) using plates (Millipore MAFBN0B50) preincubated for 15 min. in 250 μl of the same buffer. Samples were counted using 30 μl of LSC Universol (ICN) in a Wallac 1450 Microbeta counter. Non specific binding was tested using 100 μM of R-PIA.

Structure (SMILES)	Ki [nM]
COc1ccc(Nc2ncc(-c3ccncn3)c(-c3ccco3)n2)cn1 [Example 2, 4′-(2-Furyl)-N-(6-methoxypyridin-3-yl)-4,5′-bipyrimidin-2′-amine]	4320

Same assay, conditions: [3H]-NECA, Hela cell membranes; read-out: Binding human A3 Ki

Structure (SMILES)	Ki [nM]
c1coc(-c2nc(Nc3cncnc3)ncc2-c2ccncn2)c1 [Example 13, 4′-(2-Furyl)-N-pyrimidin-5-yl-4,5′-bipyrimidin-2′-amine]	1440
[O-][n+]1cccc(Nc2ncc(-c3ccncn3)c(-c3ccco3)n2)c1 [Example 12, 4′-(2-Furyl)-N-(1-oxidopyridin-3-yl)-4,5′-bipyrimidin-2′-amine]	846
Fc1ccc(Nc2ncc(-c3ccncn3)c(-c3ccco3)n2)cn1 [Example 4, N-(6-Fluoropyridin-3-yl)-4′-(2-furyl)-4,5′-bipyrimidin-2′-amine]	1690
c1cncc(Nc2ncc(-c3ccncn3)c(-c3cccs3)n2)c1 [Example 6, N-Pyridin-3-yl-4′-thien-2-yl-4,5′-bipyrimidin-2′-amine]	310
c1cncc(Nc2ncc(-c3ccnnc3)c(-c3ccco3)n2)c1 [Example 11, 4-(2-Furyl)-5-pyridazin-4-yl-N-pyridin-3-ylpyrimidin-2-amine]	407
O=c1ccc(Nc2ncc(-c3ccncn3)c(-c3ccco3)n2)c[nH]1 [Example 21, 5-{[4′-(2-Furyl)-4,5′-bipyrimidin-2′-yl]amino}pyridin-2(1H)-one]	2790
c1cncc(Nc2ncc(-c3ccncn3)c(-c3ccco3)n2)c1 [Example 1, 4′-(2-Furyl)-N-pyridin-3-yl-4,5′-bipyrimidin-2′-amine]	1100
